Measured values: ChEMBL document CHEMBL5715260, “Selectivity Literature for EUbOPEN Chemogenomic Library” (2024)
Each block holds one compound with its values, some of them ahead of it. Where a SMILES comes first, the peptide text is derived from it. [ ]: non-standard residue; d: D form. The star is where a group is joined. Lys(Me,2-norbornyl) = CN(CCCC[C@H](N)C(=O)O)C1CC2CCC1C2; Benzoyl(4-tBu) = CC(C)(C)c1ccc(C(=O)*)cc1; CH2Cl = ClC*

Key:
Set-up in all cases: recommended concentration 1 uM
[1] = molecular target: Chromodomain Y-like protein 2 (Homo sapiens, UniProt Q8N8U2); experiment: Selectivity interaction (SPR) EUB0001090a CDYL2
[2] = molecular target: E3 SUMO-protein ligase CBX4 (Homo sapiens, UniProt O00257); experiment: Selectivity interaction (SPR) EUB0001090a CBX4
[3] = molecular target: Chromobox protein homolog 8 (Homo sapiens, UniProt Q9HC52); experiment: Selectivity interaction (SPR) EUB0001090a CBX8
[4] = molecular target: Chromobox protein homolog 6 (Homo sapiens, UniProt O95503); experiment: Selectivity interaction (SPR) EUB0001090a CBX6
[5] = molecular target: T1, Chromobox protein homolog 2 (Homo sapiens, UniProt Q14781); experiment: Selectivity interaction (SPR) EUB0001090a CBX2
T1 sequence (Q14781 whole entry): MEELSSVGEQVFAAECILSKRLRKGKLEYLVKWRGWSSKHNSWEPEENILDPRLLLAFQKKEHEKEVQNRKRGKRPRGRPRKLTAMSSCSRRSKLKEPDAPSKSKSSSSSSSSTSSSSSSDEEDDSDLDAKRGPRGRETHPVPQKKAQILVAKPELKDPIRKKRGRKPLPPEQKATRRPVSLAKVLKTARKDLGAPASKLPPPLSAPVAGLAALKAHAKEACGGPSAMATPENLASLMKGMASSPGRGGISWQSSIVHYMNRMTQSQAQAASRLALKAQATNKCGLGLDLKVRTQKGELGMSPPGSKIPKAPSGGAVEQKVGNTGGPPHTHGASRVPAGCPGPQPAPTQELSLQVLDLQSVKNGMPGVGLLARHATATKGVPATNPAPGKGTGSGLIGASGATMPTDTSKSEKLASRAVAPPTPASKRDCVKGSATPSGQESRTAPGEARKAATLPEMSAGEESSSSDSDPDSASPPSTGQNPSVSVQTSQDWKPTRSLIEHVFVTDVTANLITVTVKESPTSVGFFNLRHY

Caspase-9 [6] = molecular target: T2, Caspase-9 (Homo sapiens, UniProt P55211); experiment: (§1) Selectivity interaction (Enzymatic assay) EUB0002178aAD CASP9
T2 sequence (P55211 whole entry): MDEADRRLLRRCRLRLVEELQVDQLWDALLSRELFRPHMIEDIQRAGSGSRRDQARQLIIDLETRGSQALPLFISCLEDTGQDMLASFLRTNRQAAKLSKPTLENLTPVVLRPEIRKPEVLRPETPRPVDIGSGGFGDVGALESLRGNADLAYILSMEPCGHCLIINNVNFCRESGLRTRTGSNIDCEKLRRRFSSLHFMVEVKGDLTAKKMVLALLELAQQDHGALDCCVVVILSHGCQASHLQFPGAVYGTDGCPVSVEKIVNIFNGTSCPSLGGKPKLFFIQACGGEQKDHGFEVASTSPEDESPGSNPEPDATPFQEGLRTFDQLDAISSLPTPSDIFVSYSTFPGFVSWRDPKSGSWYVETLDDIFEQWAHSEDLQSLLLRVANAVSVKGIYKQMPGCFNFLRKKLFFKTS

Caspase-9 [7] = molecular target: T2, Caspase-9; experiment: as §1; remark: listed apart in the source
Caspase-7 [8] = molecular target: T3, Caspase-7 (Homo sapiens, UniProt P55210); experiment: (§2) Selectivity interaction (Enzymatic assay) EUB0002178aAD CASP7
T3 sequence (P55210 whole entry): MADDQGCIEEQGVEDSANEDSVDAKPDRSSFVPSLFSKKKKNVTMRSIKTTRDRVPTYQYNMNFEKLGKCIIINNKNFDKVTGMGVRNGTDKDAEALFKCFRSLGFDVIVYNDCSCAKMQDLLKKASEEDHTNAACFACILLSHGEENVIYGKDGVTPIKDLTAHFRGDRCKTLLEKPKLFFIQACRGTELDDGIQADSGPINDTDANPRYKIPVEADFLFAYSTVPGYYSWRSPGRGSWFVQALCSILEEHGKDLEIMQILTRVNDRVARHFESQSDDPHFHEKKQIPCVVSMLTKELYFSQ

Caspase-8 [9] = molecular target: T4, Caspase-8 (Homo sapiens, UniProt Q14790); experiment: (§3) Selectivity interaction (Enzymatic assay) EUB0002178aAD CASP8
Caspase-8 [10] = molecular target: T4, Caspase-8; experiment: as §3; remark: listed apart in the source
Caspase-7 [11] = molecular target: T3, Caspase-7; experiment: as §2; remark: listed apart in the source
Caspase-5 [12] = molecular target: T5, Caspase-5 (Homo sapiens, UniProt P51878); experiment: (§4) Selectivity interaction (Enzymatic assay) EUB0002176a CASP5
T5 sequence (P51878 whole entry): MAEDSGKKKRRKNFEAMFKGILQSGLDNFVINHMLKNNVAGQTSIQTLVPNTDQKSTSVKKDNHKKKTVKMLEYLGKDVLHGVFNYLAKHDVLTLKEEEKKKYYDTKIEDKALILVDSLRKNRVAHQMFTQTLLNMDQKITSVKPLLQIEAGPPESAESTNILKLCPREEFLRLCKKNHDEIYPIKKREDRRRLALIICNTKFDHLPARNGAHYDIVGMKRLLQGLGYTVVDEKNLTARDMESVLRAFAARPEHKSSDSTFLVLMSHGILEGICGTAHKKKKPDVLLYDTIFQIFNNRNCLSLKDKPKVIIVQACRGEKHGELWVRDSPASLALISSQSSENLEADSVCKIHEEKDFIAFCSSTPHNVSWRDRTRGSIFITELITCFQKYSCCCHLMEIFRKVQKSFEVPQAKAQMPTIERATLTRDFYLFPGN

Caspase-5 [13] = molecular target: T5, Caspase-5; experiment: as §4; remark: listed apart in the source
[14] = molecular target: T6, Histone-lysine N-methyltransferase 2A (Homo sapiens, UniProt Q03164); experiment: (§5) Selectivity interaction (Enzymatic assay) EUB0002166aAD MLL
[15] = molecular target: T6, Histone-lysine N-methyltransferase 2A; experiment: as §5; remark: listed apart in the source
[16] = molecular target: Muscarinic acetylcholine receptor M4 (Homo sapiens, UniProt P08173); experiment: Selectivity interaction (US National Institute of Mental Health's Psychoactive Drug Screen Program Selectivity Panel) EUB0001125a CHRM4
[17] = molecular target: Alpha-2C adrenergic receptor (Homo sapiens, UniProt P18825); experiment: Selectivity interaction (US National Institute of Mental Health's Psychoactive Drug Screen Program Selectivity Panel) EUB0001125a ADRA2C
[18] = molecular target: Muscarinic acetylcholine receptor M1 (Homo sapiens, UniProt P11229); experiment: Selectivity interaction (US National Institute of Mental Health's Psychoactive Drug Screen Program Selectivity Panel) EUB0001125a CHRM1
[19] = molecular target: 5-hydroxytryptamine receptor 2A (Homo sapiens, UniProt P28223); experiment: Selectivity interaction (US National Institute of Mental Health's Psychoactive Drug Screen Program Selectivity Panel) EUB0001125a HTR2A
[20] = molecular target: Alpha-1B adrenergic receptor (Homo sapiens) (UniProt P35368); experiment: Selectivity interaction (Ricerca selectivity panel) EUB0001125a ADRA1B; conditions: at 1 µM
[21] = molecular target: Muscarinic acetylcholine receptor M2 (Homo sapiens) (UniProt P08172); experiment: Selectivity interaction (Ricerca selectivity panel) EUB0001125a CHRM2; conditions: at 1 µM
[22] = molecular target: Muscarinic acetylcholine receptor M2 (Homo sapiens, UniProt P08172); experiment: Selectivity interaction (US National Institute of Mental Health's Psychoactive Drug Screen Program Selectivity Panel) EUB0001125a CHRM2
[23] = molecular target: Alpha-1A adrenergic receptor (Homo sapiens, UniProt P35348); experiment: Selectivity interaction (US National Institute of Mental Health's Psychoactive Drug Screen Program Selectivity Panel) EUB0001125a ADRA1A
[24] = molecular target: Alpha-1A adrenergic receptor (Homo sapiens) (UniProt P35348); experiment: Selectivity interaction (Ricerca selectivity panel) EUB0001125a ADRA1A; conditions: at 1 µM

T4 sequence (Q14790 217-374 limits assumed): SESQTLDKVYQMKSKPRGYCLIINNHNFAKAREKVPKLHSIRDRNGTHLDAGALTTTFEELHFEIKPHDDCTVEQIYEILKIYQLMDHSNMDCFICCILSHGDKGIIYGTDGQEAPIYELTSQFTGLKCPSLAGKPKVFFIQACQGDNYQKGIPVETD
T4 sequence (Q14790 385-479 limits assumed): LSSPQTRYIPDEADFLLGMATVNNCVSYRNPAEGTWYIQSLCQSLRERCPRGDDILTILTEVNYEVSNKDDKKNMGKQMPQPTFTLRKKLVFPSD
T6 sequence (Q03164 1-2718 limits assumed): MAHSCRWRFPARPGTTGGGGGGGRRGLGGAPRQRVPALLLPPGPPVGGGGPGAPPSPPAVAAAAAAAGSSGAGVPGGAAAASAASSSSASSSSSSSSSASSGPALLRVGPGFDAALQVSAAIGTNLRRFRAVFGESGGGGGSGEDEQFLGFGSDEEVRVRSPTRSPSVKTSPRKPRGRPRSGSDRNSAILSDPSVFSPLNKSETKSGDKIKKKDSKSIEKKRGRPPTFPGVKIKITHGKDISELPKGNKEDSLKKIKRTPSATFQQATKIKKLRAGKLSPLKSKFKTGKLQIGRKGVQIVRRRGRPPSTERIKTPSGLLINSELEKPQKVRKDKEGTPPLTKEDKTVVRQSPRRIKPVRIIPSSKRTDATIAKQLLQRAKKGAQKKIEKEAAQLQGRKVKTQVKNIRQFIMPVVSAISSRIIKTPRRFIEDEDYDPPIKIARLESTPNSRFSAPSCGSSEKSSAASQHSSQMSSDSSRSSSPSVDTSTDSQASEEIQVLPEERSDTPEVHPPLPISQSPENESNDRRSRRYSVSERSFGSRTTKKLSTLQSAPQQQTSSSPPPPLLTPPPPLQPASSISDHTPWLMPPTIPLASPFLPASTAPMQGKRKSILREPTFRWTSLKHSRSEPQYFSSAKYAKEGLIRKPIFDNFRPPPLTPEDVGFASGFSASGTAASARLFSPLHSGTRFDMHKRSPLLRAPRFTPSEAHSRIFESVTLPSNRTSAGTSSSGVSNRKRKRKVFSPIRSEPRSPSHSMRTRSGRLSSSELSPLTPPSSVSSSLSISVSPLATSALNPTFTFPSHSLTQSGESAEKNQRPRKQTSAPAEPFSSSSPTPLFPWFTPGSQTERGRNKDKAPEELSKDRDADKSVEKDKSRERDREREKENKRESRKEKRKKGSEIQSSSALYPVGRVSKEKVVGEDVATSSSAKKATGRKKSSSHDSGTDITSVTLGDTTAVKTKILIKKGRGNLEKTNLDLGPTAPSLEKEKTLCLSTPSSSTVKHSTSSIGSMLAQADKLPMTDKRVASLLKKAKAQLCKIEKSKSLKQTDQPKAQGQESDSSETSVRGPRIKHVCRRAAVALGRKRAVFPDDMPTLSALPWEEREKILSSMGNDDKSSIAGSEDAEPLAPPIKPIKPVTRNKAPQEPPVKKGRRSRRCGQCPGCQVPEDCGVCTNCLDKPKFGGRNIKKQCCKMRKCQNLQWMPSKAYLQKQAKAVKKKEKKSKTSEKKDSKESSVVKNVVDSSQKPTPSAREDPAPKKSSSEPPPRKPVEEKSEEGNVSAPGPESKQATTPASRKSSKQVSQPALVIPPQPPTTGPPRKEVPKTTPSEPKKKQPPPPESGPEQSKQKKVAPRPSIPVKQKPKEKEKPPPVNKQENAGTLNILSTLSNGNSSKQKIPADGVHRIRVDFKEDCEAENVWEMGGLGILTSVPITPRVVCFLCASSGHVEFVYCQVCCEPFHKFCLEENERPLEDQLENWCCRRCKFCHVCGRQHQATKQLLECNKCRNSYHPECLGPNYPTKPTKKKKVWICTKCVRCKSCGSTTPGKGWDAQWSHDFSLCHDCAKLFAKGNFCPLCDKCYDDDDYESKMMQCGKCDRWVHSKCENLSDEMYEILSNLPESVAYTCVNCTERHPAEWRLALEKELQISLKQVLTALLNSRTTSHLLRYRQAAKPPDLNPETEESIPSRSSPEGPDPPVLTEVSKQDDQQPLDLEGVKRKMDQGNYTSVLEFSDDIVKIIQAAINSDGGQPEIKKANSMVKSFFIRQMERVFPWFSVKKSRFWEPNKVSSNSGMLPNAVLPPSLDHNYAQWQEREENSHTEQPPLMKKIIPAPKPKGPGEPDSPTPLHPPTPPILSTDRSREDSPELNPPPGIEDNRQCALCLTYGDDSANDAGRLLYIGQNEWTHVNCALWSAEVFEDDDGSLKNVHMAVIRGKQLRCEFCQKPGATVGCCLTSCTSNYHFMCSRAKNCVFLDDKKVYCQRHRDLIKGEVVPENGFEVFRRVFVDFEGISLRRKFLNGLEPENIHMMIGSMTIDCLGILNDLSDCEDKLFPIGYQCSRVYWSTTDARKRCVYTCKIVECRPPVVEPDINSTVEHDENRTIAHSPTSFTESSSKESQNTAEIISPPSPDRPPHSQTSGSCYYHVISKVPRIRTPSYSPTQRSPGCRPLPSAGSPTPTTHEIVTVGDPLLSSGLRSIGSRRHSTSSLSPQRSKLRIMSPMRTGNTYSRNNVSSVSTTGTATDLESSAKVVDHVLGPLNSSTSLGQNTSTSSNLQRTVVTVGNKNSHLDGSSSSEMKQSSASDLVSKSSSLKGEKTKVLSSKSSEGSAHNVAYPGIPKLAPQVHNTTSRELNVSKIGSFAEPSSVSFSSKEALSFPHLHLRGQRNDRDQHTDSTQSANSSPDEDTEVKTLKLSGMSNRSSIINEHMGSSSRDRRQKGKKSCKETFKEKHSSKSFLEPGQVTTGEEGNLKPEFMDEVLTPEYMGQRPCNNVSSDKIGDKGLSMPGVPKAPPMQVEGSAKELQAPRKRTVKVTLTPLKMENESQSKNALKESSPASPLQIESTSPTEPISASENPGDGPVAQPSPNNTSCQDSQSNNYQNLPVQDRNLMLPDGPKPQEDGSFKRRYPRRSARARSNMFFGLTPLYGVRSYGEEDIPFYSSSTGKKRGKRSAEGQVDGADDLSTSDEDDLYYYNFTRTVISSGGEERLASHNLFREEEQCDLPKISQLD
T6 sequence (Q03164 2719-3969 limits assumed): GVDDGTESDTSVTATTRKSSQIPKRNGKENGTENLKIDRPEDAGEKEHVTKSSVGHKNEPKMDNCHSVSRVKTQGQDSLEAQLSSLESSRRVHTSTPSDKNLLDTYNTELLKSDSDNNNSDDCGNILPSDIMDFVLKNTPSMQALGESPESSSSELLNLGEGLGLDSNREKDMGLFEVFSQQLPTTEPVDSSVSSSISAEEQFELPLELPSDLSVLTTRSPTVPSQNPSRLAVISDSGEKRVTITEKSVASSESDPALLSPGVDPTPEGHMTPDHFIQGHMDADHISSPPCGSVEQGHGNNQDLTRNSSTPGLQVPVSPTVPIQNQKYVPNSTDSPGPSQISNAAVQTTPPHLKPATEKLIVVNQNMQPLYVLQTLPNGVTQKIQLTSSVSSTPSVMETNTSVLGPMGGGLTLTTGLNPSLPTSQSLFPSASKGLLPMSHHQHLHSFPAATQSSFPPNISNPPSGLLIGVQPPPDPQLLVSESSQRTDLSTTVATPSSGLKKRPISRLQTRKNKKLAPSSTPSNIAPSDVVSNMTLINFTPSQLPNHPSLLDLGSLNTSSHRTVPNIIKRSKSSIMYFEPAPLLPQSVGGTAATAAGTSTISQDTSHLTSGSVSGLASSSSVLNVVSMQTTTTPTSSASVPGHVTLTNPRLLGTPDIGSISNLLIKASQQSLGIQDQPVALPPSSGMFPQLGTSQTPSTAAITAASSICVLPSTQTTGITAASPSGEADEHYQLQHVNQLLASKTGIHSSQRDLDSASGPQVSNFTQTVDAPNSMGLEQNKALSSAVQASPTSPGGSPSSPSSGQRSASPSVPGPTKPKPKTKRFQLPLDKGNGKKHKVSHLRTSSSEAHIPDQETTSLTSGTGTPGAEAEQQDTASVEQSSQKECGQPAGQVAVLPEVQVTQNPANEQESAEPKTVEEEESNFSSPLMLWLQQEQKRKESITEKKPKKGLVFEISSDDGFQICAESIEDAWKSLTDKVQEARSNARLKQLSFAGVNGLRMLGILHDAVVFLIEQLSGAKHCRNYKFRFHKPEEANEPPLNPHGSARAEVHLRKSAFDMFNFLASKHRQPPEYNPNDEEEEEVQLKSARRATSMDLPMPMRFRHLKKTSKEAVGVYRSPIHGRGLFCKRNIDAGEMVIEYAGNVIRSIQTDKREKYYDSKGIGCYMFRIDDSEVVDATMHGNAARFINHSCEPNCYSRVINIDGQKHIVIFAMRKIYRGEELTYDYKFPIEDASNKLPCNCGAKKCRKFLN
Alpha-1B adrenergic receptor (Homo sapiens), sequence (P35368 whole entry): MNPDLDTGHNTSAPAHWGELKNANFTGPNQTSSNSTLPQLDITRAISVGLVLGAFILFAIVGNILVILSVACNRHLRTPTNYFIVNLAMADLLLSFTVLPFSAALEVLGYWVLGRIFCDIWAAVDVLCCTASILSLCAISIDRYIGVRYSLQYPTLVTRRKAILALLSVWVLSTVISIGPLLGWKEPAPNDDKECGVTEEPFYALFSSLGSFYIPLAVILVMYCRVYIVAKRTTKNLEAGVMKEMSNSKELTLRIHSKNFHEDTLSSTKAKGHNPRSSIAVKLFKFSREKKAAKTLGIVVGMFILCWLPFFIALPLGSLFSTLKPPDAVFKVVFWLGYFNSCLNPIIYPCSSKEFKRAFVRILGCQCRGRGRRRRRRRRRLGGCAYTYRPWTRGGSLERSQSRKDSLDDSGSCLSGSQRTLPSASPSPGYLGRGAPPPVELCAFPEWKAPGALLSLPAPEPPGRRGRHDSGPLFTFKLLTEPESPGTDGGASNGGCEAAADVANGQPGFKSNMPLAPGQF

- IC50 (Caspase-9 [6]): 2 nM
- IC50 (Caspase-9 [7]): 2 nM
- IC50 (Caspase-7 [8]): 162 nM
- IC50 (Caspase-8 [9]): 26 nM
- IC50 (Caspase-8 [10]): 26 nM
- IC50 (Caspase-7 [11]): 162 nM
SMILES: CC[C@H](C)[C@H](NC(=O)[C@H](CCC(=O)O)NC(=O)[C@@H](NC(C)=O)C(C)C)C(=O)N[C@H](C=O)CC(=O)O (Ac-VEID-aldehyde)

- IC50 (Caspase-5 [12]): 329 nM
- IC50 (Caspase-5 [13]): 329 nM
SMILES: CC(=O)N[C@@H](Cc1ccccc1)C(=O)N[C@@H](CC(C)C)C(=O)N[C@H](C(=O)N[C@@H](CC(=O)O)C(=O)CCl)[C@@H](C)O (Ac-FLTD-CH2Cl)

The next lines start with the compound.

SMILES: COC(=O)[C@H](CO)NC(=O)[C@H](CCCCN(C)C1CC2CCC1C2)NC(=O)[C@H](CC(C)C)NC(=O)[C@H](C)NC(=O)[C@H](Cc1ccccc1)NC(=O)c1ccc(C(C)(C)C)cc1 (some centres undefined) ({Benzoyl(4-tBu)}-FAL[Lys(Me,2-norbornyl)]S-OMe)
- Kd [1]: 415 nM
- Kd [2]: 26.7 nM
- Kd [3]: 458 nM
- Kd [4]: 543 nM
- Kd [5]: 1750 nM

SMILES: Cc1nc(F)ccc1-c1cc(Cn2ccn(C)c2=N)cc(C(=O)NCc2ccc(Cl)c(Cl)c2)c1
- IC50 [14]: 19.9 nM
- IC50 [15]: 19.9 nM

SMILES: COc1cc2c(NC3CCN(C(C)C)CC3)nc(C3CCCCC3)nc2cc1OCCCN1CCCC1
- Ki [16]: 510 nM
- Ki [17]: 400 nM
- Ki [18]: 370 nM
- Ki [19]: 1200 nM
- Inhibition of control [20]: 69%
- Inhibition of control [21]: 64%
- Ki [22]: 510 nM
- Ki [23]: 500 nM
- Inhibition of control [24]: 90%
